This is an account of results in PMC9959982 (International Journal of Molecular Sciences, 2023).

For one data set, the system named is MT-4 cells. Nature of the data set: Cytotoxicity in MT-4 cells (MTS/PES). The following applies: 50% reduction in cell viability, 5 days. The data set is classed as cell-based.
The subject of a further data set is rhabdosarcoma (RD) cells. Nature of the data set: Adverse effect on uninfected RD cells (MTS/PMS). The note with it: RD cells.
In data set [1] the test system is HIV-1 (NL4.3). Put plainly: microbe, parasite or virus in culture. The following applies: for EC50: virus-induced cytopathic effect reduced by 50%. The class given is cell-based. A general note: Cytopathic effects are the visible damage that an infection or toxin causes in cultured cells.
The next data set has as its system HIV-2 (ROD). Put plainly: Inhibition of HIV-induced cytopathic effect in MT-4 cells, HIV-2. The class given is cell-based.
The nature of data set [2]: Cytotoxicity in MT-4 cells (MTS/PES). The class given is cell-based. The following applies: human, 50% reduction in cell viability.
Data set [3] deals with EV-A71 BrCr strain. Nature of the data set: Virus-induced cell death assay, EV-A71 BrCr lab strain in RD cells. The class given is cell-based, Enterovirus A71. The note with it: for EC50: EV-A71 BrCr (wild type).
The nature of data set [4]: Adverse effect on uninfected RD cells (MTS/PMS). The following applies: human, uninfected rhabdosarcoma (RD) cells.
Another data set is described as follows: in vitro. The following applies: human.
The test system of a further data set is EV-A71 VP1_P246S. The class given is cell-based, Enterovirus A71. The note with it: VP1_P246S mutant.
The next data set concerns EV-A71 VP1_S184T. The class given is cell-based, Enterovirus A71. The following applies: VP1_S184T mutant.
The subject of a further data set is EV-A71 VP1_S184T_P246S. The class given is cell-based, Enterovirus A71. The following applies: VP1_S184T_P246S double mutant.
Data set [5] relates to HIV-1 (NL4.3). The following applies: printed in Figure 1, prototypes of previous work; cited from earlier work.
For data set [6], the system named is EV-A71 BrCr strain. The following applies: Figure 1; read-out: EV71 EC50; cited from earlier work.
[7] abbreviates: Human immunodeficiency virus 1, MT4, MT-4 cells.
Where [8] appears, read: Human immunodeficiency virus 2, MT4, virus-induced cytopathic effect reduced by 50%.
The mark [9] stands for this setting: Enterovirus A, EVA71, RD, RD cells.

The EC50 is the concentration giving half of the maximal effect.

Where two headings read alike, the source gives them in different places.

For the molecule `O=C(O)CCCc1[nH]c2ccccc2c1C[C@H](NC(=O)CCOCC(COCCC(=O)N[C@@H](Cc1c(CCCC(=O)O)[nH]c2ccccc12)C(=O)O)(COCCC(=O)N[C@H](Cc1c(CCCC(=O)O)[nH]c2ccccc12)C(=O)O)COCCC(=O)N[C@H](Cc1c(CCCC(=O)O)[nH]c2ccccc12)C(=O)O)C(=O)O` [Compound 32], the CC50 in the data set with MT-4 cells is greater than 50 µM; in the data set with rhabdosarcoma (RD) cells, greater than 100 µM.
Consider dextran sulfate-5000 [DS-5000], for which the EC50 in the data set on HIV-1 (NL4.3) [1] (MT-4 cells) turned out to be 0.07 ± 0.02 µM; in the data set with HIV-2 (ROD) (virus-induced cytopathic effect reduced by 50%), 0.03 ± 0.01 µM.
The molecule `CN[C@@H]1[C@H](O[C@@H]2OC[C@@H](O)[C@H](O)[C@H]2O)[C@@H](O)[C@H](O[C@H]2c3cc(C)c(C(=O)N[C@H](C)C(=O)O)c(O)c3-c3c(cc4c(c3O)C(=O)c3cc(OC)cc(O)c3C4=O)[C@@H]2O)O[C@@H]1C` [PRM-A, pradimicin A] showed a CC50 at 5 days in data set [2] greater than 100 µM. The half-maximal effective concentration (EC50) amounted to 3.3 ± 1.2 µM in the data set on HIV-1 (NL4.3) [1] (setting [7]) and 5.9 ± 3.7 µM in the data set with HIV-2 (ROD) (setting [8]). Further, in the data set on HIV-1 (NL4.3) [1] (MT-4 cells, Table 1), the “SI selectivity index (CC50/EC50)” value was greater than 30.3.
With `O=C(O)CCCCCCc1[nH]c2ccccc2c1C[C@H](NC(=O)CCOCC(COCCC(=O)N[C@@H](Cc1c(CCCCCCC(=O)O)[nH]c2ccccc12)C(=O)O)(COCCC(=O)N[C@H](Cc1c(CCCCCCC(=O)O)[nH]c2ccccc12)C(=O)O)COCCC(=O)N[C@H](Cc1c(CCCCCCC(=O)O)[nH]c2ccccc12)C(=O)O)C(=O)O` [Compound 33], the figures for the CC50 in the data set with MT-4 cells and with rhabdosarcoma (RD) cells were greater than 50 µM and greater than 100 µM, respectively.
With `O=C(CCOCC(COCCC(=O)Nc1cc(C(=O)O)cc(C(=O)O)c1)(COCCC(=O)Nc1cc(C(=O)O)cc(C(=O)O)c1)COCCC(=O)Nc1cc(C(=O)O)cc(C(=O)O)c1)Nc1cc(C(=O)O)cc(C(=O)O)c1` [Compound 35], the CC50 at 5 days in [2] is greater than 50 µM. Moreover, the EC50 in the data set with EV-A71 BrCr strain [3] (RD cells) was 8.48 ± 2.34 µM; in the data set on EV-A71 BrCr strain [3] (setting [9]) it was 8.5 µM; in the data set on HIV-1 (NL4.3) [1] (setting [7]), greater than 50 µM; with HIV-2 (ROD) (setting [8]), greater than 50 µM. In the data set with EV-A71 BrCr strain [3] (EV-A71 BrCr, RD cells), the “SI selectivity index (CC50/EC50)” value is greater than 12. In addition, the “activity against HIV-1” value in the data set on HIV-1 (NL4.3) [1] (at concentrations up to 50 µM) is “inactive”. This molecule returned a CC50 at 3 days in data set [4] greater than 100 µM.
Regarding `CCOC(=O)c1ccc(OCCC2CCN(c3ccc(C)nn3)CC2)cc1` [Pirodavir, pirodavir, reference compound], in the data set with EV-A71 BrCr strain [3], the “SI selectivity index (CC50/EC50)” value is given as greater than 333. In addition, the half-maximal effective concentration (EC50) in the data set on EV-A71 BrCr strain [3] (setting [9]) came out at 0.3 ± 0.001 µM. For the same molecule, the CC50 at 3 days in “in vitro” was greater than 100 µM.
As to `O=C(CCOCC(COCCC(=O)NC(Cc1c(CCCNC(=O)Nc2cc(C(=O)O)cc(C(=O)O)c2)[nH]c2ccccc12)C(=O)O)(COCCC(=O)NC(Cc1c(CCCNC(=O)Nc2cc(C(=O)O)cc(C(=O)O)c2)[nH]c2ccccc12)C(=O)O)COCCC(=O)NC(Cc1c(CCCNC(=O)Nc2cc(C(=O)O)cc(C(=O)O)c2)[nH]c2ccccc12)C(=O)O)NC(Cc1c(CCCNC(=O)Nc2cc(C(=O)O)cc(C(=O)O)c2)[nH]c2ccccc12)C(=O)O` (stereo not shown) [Compound 23], the EC50 in the data set on EV-A71 VP1_P246S worked out at 0.22 ± 0.01 µM; in the data set on EV-A71 VP1_S184T, 0.41 ± 0.03 µM; in the data set on EV-A71 VP1_S184T_P246S, 0.58 ± 0.2 µM. In addition, the CC50 in the data set with MT-4 cells and with rhabdosarcoma (RD) cells was greater than 50 µM throughout.
With `O=C(CCC(CCC(=O)NC(Cc1c(-c2cc(C(=O)O)cc(C(=O)O)c2)[nH]c2ccccc12)C(=O)O)(CCC(=O)NC(Cc1c(-c2cc(C(=O)O)cc(C(=O)O)c2)[nH]c2ccccc12)C(=O)O)[N+](=O)[O-])NC(Cc1c(-c2cc(C(=O)O)cc(C(=O)O)c2)[nH]c2ccccc12)C(=O)O` (stereo not shown) [AL-470], the figures for the EC50 in the data set on HIV-1 (NL4.3) [5] and in the data set with EV-A71 BrCr strain [6] were 0.27 ± 0.12 µM and 0.35 ± 0.03 µM, respectively.
`O=C(CCOCC(COCCC(=O)NC(Cc1c(CCCCCCCCNC(=O)Nc2cc(C(=O)O)cc(C(=O)O)c2)[nH]c2ccccc12)C(=O)O)(COCCC(=O)NC(Cc1c(CCCCCCCCNC(=O)Nc2cc(C(=O)O)cc(C(=O)O)c2)[nH]c2ccccc12)C(=O)O)COCCC(=O)NC(Cc1c(CCCCCCCCNC(=O)Nc2cc(C(=O)O)cc(C(=O)O)c2)[nH]c2ccccc12)C(=O)O)NC(Cc1c(CCCCCCCCNC(=O)Nc2cc(C(=O)O)cc(C(=O)O)c2)[nH]c2ccccc12)C(=O)O` (stereo not shown) [Compound 25]: the values for the CC50 with MT-4 cells and in the data set on rhabdosarcoma (RD) cells were greater than 50 µM and greater than 100 µM, respectively.
The corresponding values for `O=C(CCOCC(COCCC(=O)NC(Cc1c(CCCCCNC(=O)Nc2cc(C(=O)O)cc(C(=O)O)c2)[nH]c2ccccc12)C(=O)O)(COCCC(=O)NC(Cc1c(CCCCCNC(=O)Nc2cc(C(=O)O)cc(C(=O)O)c2)[nH]c2ccccc12)C(=O)O)COCCC(=O)NC(Cc1c(CCCCCNC(=O)Nc2cc(C(=O)O)cc(C(=O)O)c2)[nH]c2ccccc12)C(=O)O)NC(Cc1c(CCCCCNC(=O)Nc2cc(C(=O)O)cc(C(=O)O)c2)[nH]c2ccccc12)C(=O)O` (stereo not shown) [Compound 24] are 30.9 ± 0.98 µM and greater than 100 µM.
The corresponding values for `O=C(CCOCC(COCCC(=O)NCCNC(=O)Nc1cc(C(=O)O)cc(C(=O)O)c1)(COCCC(=O)NCCNC(=O)Nc1cc(C(=O)O)cc(C(=O)O)c1)COCCC(=O)NCCNC(=O)Nc1cc(C(=O)O)cc(C(=O)O)c1)NCCNC(=O)Nc1cc(C(=O)O)cc(C(=O)O)c1` [Compound 40] are greater than 50 µM and greater than 100 µM.
